Key:
HSF1 regulated genes [1] = assay: Example 1 in vivo pharmacodynamic study via subcutaneous dosing: expression of genes upregulated by HSF1 activation; design: species or system mouse
Protocol: (§1) Wildtype mice (3 per group) were dosed subcutaneously at 0, 0.5, 1.5, 5 and 10 mg/kg (6aS)-6-methyl-5,6,6a,7-tetrahydro-4H-dibenzo[de,g]quinoline-10,11-diol hydrochloride for 7 days once daily. One animal in the 10 mg/kg dosing group was actually dosed 15 mg/kg on Day 1. To prepare the dosing solutions, (6aS)-6-methyl-5,6,6a,7-tetrahydro-4H-dibenzo[de,g]quinoline-10,11-diol was pre-weighed into bijous and stored in foil.

HSF1 regulated genes [2] = assay: Example 2 in vivo pharmacodynamic study via subcutaneous dosing, cortex: expression of genes upregulated by HSF1 activation; design: species or system mouse; conditions: for Dlg4 gene induction / Dnajba gene induction / Hspa1a gene induction / Hspa8 gene induction / Syn1 gene induction: wildtype mouse cortex, 5 mg/kg s.c. once daily 7 days, compared to Gapdh
Protocol: as §1

NRF2 = assay: Example 2 in vivo pharmacodynamic study via subcutaneous dosing, cortex: expression of genes upregulated by NRF2 activation; conditions: wildtype mouse cortex, 5 mg/kg s.c. once daily 7 days, compared to Gapdh
Protocol: as §1

[3] = Example 4 mouse weights in TDP-43^Q331K mouse model; type: in vivo; conditions: TDP-43^Q331K mice
Protocol: (§2) Following genotyping, transgenic females were block randomized into three different dosing groups: vehicle once daily, 2.5 mg/kg (6aS)-6-methyl-5,6,6a,7-tetrahydro-4H-dibenzo[de,g]quinoline-10,11-diol twice daily and 5 mg/kg (6aS)-6-methyl-5,6,6a,7-tetrahydro-4H-dibenzo[de,g]quinoline-10,11-diol once daily. The doses were selected based on results of previous internal studies. Animals were weighed daily before dosing and dosed subcutaneously at 10 ml/kg with a solution of 0.5 mg/ml (6aS)-6-methyl-5,6,6a,7-tetrahydro-4H-dibenzo[de,g]quinoline-10,11-diol for the 5 mg/kg dose and 0.25 mg/ml for the 2.5 mg/kg dose. Where animals were dosed twice a day, the doses were at least 6 hours apart and the dosing solution was freshly made for the second dose of the day.
(§3) The study was designed with two main cohorts of mice. One cohort was dosed from 25 days of age until 6 months of age and mice had behavioral testing throughout the study and consisted of 14 mice per group. The other satellite cohort was dosed from 25 days of age until 3 months of age, with no behavioral testing and consisted of 6 mice per group for target engagement and histological assessment. Behavioral tests that were carried out during the experiment were: accelerated rotarod test, gait analysis, and electrophysiology.
Animals were weighed daily before dosing to calculate dose volume. […]

TDP-43^Q331K mouse model = assay: Example 4 electrophysiology: compound muscle action potential (CMAP); type: in vivo; conditions: TDP-43^Q331K mice
Protocol: as §2, §3
Electrophysiological assessment of compound action muscle potential (CMAP) and repetitive stimulation was carried out at 6 weeks, 3 months and 6 months of age.
Mice were anesthetized using gaseous isoflurane and then maintained under gaseous anesthesia using a nose cone for the duration of the experiment. Body temperature was maintained with a heat pad. The fur from the lower left limb was removed using an electric razor followed by hair removal cream in order to allow skin contact of the ring electrodes. Ring electrodes were covered in electrical paste and were placed around the ankle and thigh area of the shaved limb. The rings were tightened so that there were no air gaps between the skin and electrodes but not so tight that blood flow was altered. A grounding electrode was placed into the base of the tail and stimulating electrodes were placed higher on the leg as near as possible to the sciatic nerve.
CMAPs were acquired by pulsing an electrical wave of […] duration to the sciatic notch. The position of the electrodes was tested prior to the final pulse in order to make sure they were placed correctly by visualizing the outcome of the pulse. The stimulation current was then increased until no further increase in CMAP was seen.

dopamine receptors = conditions: background description; cited from earlier work
[4] = wildtype mice, 1.5 mg/kg s.c. once daily 7 days, 24 hours post final dose, compared to Actb
[5] = wildtype mice, 5 mg/kg s.c. once daily 7 days, 24 hours post final dose, compared to Gapdh
[6] = wildtype mice, 10 mg/kg s.c. once daily 7 days, 6 hours post final dose, compared to Actb
[7] = wildtype mice, 10 mg/kg s.c. once daily 7 days, 6 hours post final dose, compared to Gapdh

## CN1CCc2cccc3c2[C@@H]1Cc1ccc(O)c(O)c1-3 [(6aS)-6-methyl-5,6,6a,7-tetrahydro-4H-dibenzo[de,g]quinoline-10,11-diol]
HSF1 regulated genes [1]; mice, s.c. once daily 7 days, Example 1
  dose at which HSF1 regulated genes are activated (Hspa1a and Dnajb1 gene inductions): ≥ 0.5 mg/kg
HSF1 regulated genes [1]; [4]
  Hspa1a gene induction: 2.3 fold
  Pgc1a gene induction: 1.7 fold
HSF1 regulated genes [1]; [5]
  Hspa1a gene induction: 2.3 fold
  Pgc1a gene induction: 1.7 fold
HSF1 regulated genes [1]; [6]
  Hspa1a gene induction: 2.0 fold
  Pgc1a gene induction: 1.5 fold
HSF1 regulated genes [1]; [7]
  Dnajb1 gene induction: 1.3 fold
  Hspa1a gene induction: 2.2 fold
HSF1 regulated genes [1]; wildtype mice, repeated dose of 5 mg/kg s.c. once daily 7 days, compared to Gapdh (6 hours post final dose per preceding sentence)
  Pgc1a gene induction: 1.8 fold
HSF1 regulated genes [2]; mice, s.c. once daily 7 days, Example 2
  dose at which HSF1 regulated genes are activated: ≥ 0.5 mg/kg
HSF1 regulated genes [2]; 6 hours post final dose
  Dlg4 gene induction: 1.46 fold
  Dnajba gene induction: 1.31 fold
  Hspa1a gene induction: 1.84 fold
  Hspa8 gene induction: 1.56 fold
  Syn1 gene induction: 1.68 fold
HSF1 regulated genes [2]; 24 hours post final dose
  Dlg4 gene induction: 0.90 fold
  Dnajba gene induction: 1.17 fold
  Hspa1a gene induction: 2.25 fold
  Hspa8 gene induction: 2.62 fold
  Syn1 gene induction: 1.47 fold
NRF2; 6 hours post final dose
  Gclm gene induction: 1.51 fold
  Hmox1 gene induction: 2.02 fold
  Nqo1 gene induction: 1.04 fold
  Nrf1 gene induction: 2.39 fold
  Pgc1a gene induction: 1.71 fold
NRF2; 24 hours post final dose
  Gclm gene induction: 1.45 fold
  Hmox1 gene induction: 2.11 fold
  Nqo1 gene induction: 1.32 fold
  Nrf1 gene induction: 1.58 fold
  Pgc1a gene induction: 1.70 fold
[3]; 3-month cohort, either dosing group (2.5 mg/kg twice daily, 5 mg/kg once daily s.c.)
  mouse weight compared to the vehicle dosing group: no significant difference
[3]; 6-month cohort, 2.5 mg/kg dosing group, from 121 days of age until the end of the study
  mouse weight compared to the vehicle dosing group: significant decrease
TDP-43^Q331K mouse model; 2.5 mg/kg dosing group
  relative CMAP at 6 months (based on individual CMAP at 3 months) compared to the vehicle group: significant improvement
TDP-43^Q331K mouse model; 5 mg/kg dosing group
  relative CMAP at 6 months (based on individual CMAP at 3 months) compared to the vehicle group: significant improvement
TDP-43^Q331K mouse model; 3 months of age, 5 mg/kg dosing group
  CMAP compared to the vehicle dosing group: significant decrease
TDP-43^Q331K mouse model; 6 months of age, both dosing groups (2.5 mg/kg twice daily, 5 mg/kg once daily)
  CMAP compared to vehicle dosed animals: significant increase
TDP-43^Q331K mouse model; 6 weeks of age
  CMAP, between the different dosing groups: no significant difference
Dopamine receptors
  activity on dopamine receptors (in words): weak dopamine antagonist
